For 23 compounds, IC50 results are on record in patent US8557830B2, “RAF kinase modulators and methods of use” (Amgen Inc., priority 2007, dated 2013).

The target in one assay is recombinant HuBraf V600E (Homo sapiens, UniProt P15056, V600E). Kind of assay: B-raf Homogenous Time Resolved Fluorescent (HTRF) kinase assay. The settings on record: human mutant B-raf V600E, substrate MEK1, 10 uM ATP, read-out: HTRF Enzyme assay Data IC50. It counts as biochemical. The method, then:
B-raf-Homogenous Time Resolved Fluorescent (HTRF) Kinase Assay
The final concentration of the kinase reaction buffer is 50 mM Tris-HCL pH 7.5, 10 mM MgCl2, 0.5% glucose, 0.5 mM DTT, 0.01% BSA. […] The detection reaction proceeds for one hour and is read on a RubyStar (BMG Labtech) counter. IC50s for the test compounds are generated using Excel-XLfit software.
In general terms: In TR-FRET formats the signal depends on donor and acceptor labels being close together.

Another assay has as its target T1, V600E mutant B-raf (Homo sapiens, UniProt P15056, V600E).
T1 construct: A375 cells, a human melanoma cell line having the V600E mutant B-raf is used in this assay; endogenous in cells; host or cells: A375 human melanoma cells
The experiment in a line: B-raf cell-based assay (ratio of phospho-ERK1/2 to total ERK1/2 in A375 cells). The conditions noted are these: A375 human melanoma cells, P-ERK/total ERK. The method, then:
A cell-based assay was optimized to assay the ability of compounds to inhibit B-raf activity in a whole cell context. […] The cell-based assay quantifies the ratio of phospho-ERK1/2 to total ERK1/2 and can thereby assay the cellular inhibition of B-raf kinase activity. A375 cells are plated into 96 well plates and grown to confluence. The cells are then changed into starve media (DMEM/0.1% BSA) for 60 minutes. Compounds in DMSO dose curves are then diluted in starve media and added to cells. […] After a 60 minute incubation the cells are fixed for 20 minutes at RT in 4% formaldehyde with 0.1% Triton X-100, protease and phosphatase inhibitors in PBS. The cells are washed four times in PBS then blocked for 60 minutes using a one to one mix of Odyssey blocking buffer (Li-Cor Biosciences, Inc) and PBS. Primary antibodies (rabbit anti-phospho p42/p44 MAPK (P-ERK1/2) from Cell Signaling Technology and mouse anti-ERK2 from Santa Cruz Biotechnology) are diluted in blocking buffer, added to the cells and incubated overnight at 4° C. The cells are then washed four times in PBS/0.1% Tween-20. Secondary antibodies (anti-mouse IRDye 800CW from Rockland, Inc and anti-rabbit AlexaFlour680 from Molecular Probes) are diluted in blocking buffer/0.5% Tween and incubated on cells for 60 minutes. After 4 washes in PBS/0.1% Tween-20 the microplate is scanned on an Odyssey Infrared Imager (Li-Cor Bioscience) which can read the signal given by the two secondary antibodies on their respective channels. The ratio of P-ERK/total ERK is determined and IC50s generated using Excel-XLfit software.

The structures appear in SMILES notation. pIC50: −log10 of the molar value. Read-outs that look alike come from different tables or passages of the source.

T1 sequence (P15056 whole entry V600E): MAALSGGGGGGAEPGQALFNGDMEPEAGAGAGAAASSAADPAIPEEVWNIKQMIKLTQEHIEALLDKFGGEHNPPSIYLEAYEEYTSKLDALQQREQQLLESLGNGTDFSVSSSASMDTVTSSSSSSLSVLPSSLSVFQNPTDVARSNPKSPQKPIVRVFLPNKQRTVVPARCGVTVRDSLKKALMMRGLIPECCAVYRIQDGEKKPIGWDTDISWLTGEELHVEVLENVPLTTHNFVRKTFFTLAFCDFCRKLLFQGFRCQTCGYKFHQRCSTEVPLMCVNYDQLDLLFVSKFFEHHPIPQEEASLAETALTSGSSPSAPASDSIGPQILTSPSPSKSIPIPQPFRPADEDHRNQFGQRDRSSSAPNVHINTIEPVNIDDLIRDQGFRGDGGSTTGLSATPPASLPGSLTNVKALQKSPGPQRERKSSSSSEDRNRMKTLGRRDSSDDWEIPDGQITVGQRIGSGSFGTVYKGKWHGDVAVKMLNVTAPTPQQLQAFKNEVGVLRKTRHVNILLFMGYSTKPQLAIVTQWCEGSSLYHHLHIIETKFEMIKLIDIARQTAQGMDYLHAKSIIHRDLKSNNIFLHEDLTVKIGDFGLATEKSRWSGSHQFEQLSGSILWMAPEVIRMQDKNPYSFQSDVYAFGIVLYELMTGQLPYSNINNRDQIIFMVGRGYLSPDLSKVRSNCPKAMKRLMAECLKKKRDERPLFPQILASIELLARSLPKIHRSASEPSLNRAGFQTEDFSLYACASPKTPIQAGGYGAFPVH
Chain of recombinant HuBraf V600E (P15056 whole entry V600E): as above

Take `Cc1ccc2c(Nc3ccc4c(c3)OC(F)(F)O4)nccc2c1Nc1ncccc1-c1ncnc2[nH]cnc12` [Example 59, N-1-(2,2-difluoro-1,3-benzodioxol-5-yl)-6-methyl-N-5-(3-(9H-purin-6-yl)-2-pyridinyl)-1,5-isoquinolinediamine]: the negative-log IC50 (pIC50) on recombinant HuBraf V600E (Table I) and at V600E mutant B-raf (Table I) was 8.22 each time.

As to `Cc1ccc2c(Nc3ccc(C#N)cc3)ncnc2c1Nc1ncccc1-c1ncnc2[nH]ncc12` [Example 70, 4-((7-methyl-8-((3-(1H-pyrazolo[3,4-d]pyrimidin-4-yl)-2-pyridinyl)amino)-4-quinazolinyl)amino)benzonitrile], the pIC50 (usually the IC50 on a negative log10 scale, so that one unit is a factor of ten) was 8.30 at recombinant HuBraf V600E (Table II) and 7.07 at V600E mutant B-raf (Table II).

As for `Cc1ccc2c(Nc3ccc4c(c3)OC(F)(F)O4)nccc2c1Nc1ncccc1-c1ncnc2[nH]ccc12` [Example 44, N-1-(2,2-difluoro-1,3-benzodioxol-5-yl)-6-methyl-N-5-(3-(7H-pyrrolo[2,3-d]pyrimidin-4-yl)-2-pyridinyl)-1,5-isoquinolinediamine], the pIC50 on recombinant HuBraf V600E (Table I) was 7.89; on V600E mutant B-raf (Table I), 7.60.

In the case of `Cc1ccc2c(Nc3ccc4c(c3)OC(F)(F)O4)ncnc2c1Nc1ncccc1-c1ncnc2[nH]cnc12` [Example 74, N-4-(2,2-difluoro-1,3-benzodioxol-5-yl)-7-methyl-N-8-(3-(9H-purin-6-yl)-2-pyridinyl)-4,8-quinazolinediamine], the pIC50 at recombinant HuBraf V600E (Table II) was 8.10; on V600E mutant B-raf (Table II), 8.40.

In the case of `Cc1ccc2c(Nc3ccc(Cl)cc3)nccc2c1Nc1ncccc1-c1ncnc2cc[nH]c12` [Example 62, N-1-(4-chlorophenyl)-6-methyl-N-5-(3-(5H-pyrrolo[3,2-d]pyrimidin-4-yl)-2-pyridinyl)-1,5-isoquinolinediamine], the pIC50 at recombinant HuBraf V600E (Table I) is 7.70; at V600E mutant B-raf (Table I), 6.55.

Turning to `Cc1ccc2c(Nc3ccc(C#N)cc3)ncnc2c1Nc1ncccc1-c1ncnc2[nH]cnc12` [Example 61, 4-((7-methyl-8-((3-(9H-purin-6-yl)-2-pyridinyl)amino)-4-quinazolinyl)amino)benzonitrile], the pIC50 is 8.70 on recombinant HuBraf V600E (Table I) and 6.99 on V600E mutant B-raf (Table I).

On to `Cc1ccc2c(Nc3ccc4ncsc4c3)nccc2c1Nc1ncccc1-c1ncnc2[nH]ccc12` [Example 49, N-1-1,3-benzothiazol-6-yl-6-methyl-N-5-(3-(7H-pyrrolo[2,3-d]pyrimidin-4-yl)-2-pyridinyl)-1,5-isoquinolinediamine], for which the pIC50 is 8.15 on recombinant HuBraf V600E (Table I) and 8.00 on V600E mutant B-raf (Table I).

On to `C#Cc1cccc(Nc2nccc3c(Nc4ncccc4-c4ncnc5[nH]ccc45)c(C)ccc23)c1` [Example 43, N-1-(3-ethynylphenyl)-6-methyl-N~5~-(3-(7H-pyrrolo[2,3-d]pyrimidin-4-yl)-2-pyridinyl)-1,5-isoquinolinediamine], for which the pIC50 is 8.52 at recombinant HuBraf V600E (Table I) and 8.00 on V600E mutant B-raf (Table I).

For `Cc1ccc2c(Nc3ccc4c(c3)NC(=O)C4)nccc2c1Nc1ncccc1-c1ncnc2[nH]ccc12` [Example 50, 6-((6-methyl-5-((3-(7H-pyrrolo[2,3-d]pyrimidin-4-yl)-2-pyridinyl)amino)-1-isoquinolinyl)amino)-1,3-dihydro-2H-indol-2-one], the pIC50 at recombinant HuBraf V600E (Table I) is 7.92; on V600E mutant B-raf (Table I), 7.35.

Take `Cc1ccc2c(Nc3ccc4c(c3)NC(=O)C4(C)C)nccc2c1Nc1ncccc1-c1ncnc2[nH]ccc12` [Example 51, 3,3-dimethyl-6-((6-methyl-5-((3-(7H-pyrrolo[2,3-d]pyrimidin-4-yl)-2-pyridinyl)amino)-1-isoquinolinyl)amino)-1,3-dihydro-2H-indol-2-one]: the pIC50 was 7.60 on recombinant HuBraf V600E (Table I) and 7.92 at V600E mutant B-raf (Table I).

For `Cc1ccc2c(Nc3ccc4c(c3)C(F)(F)C(=O)N4)nccc2c1Nc1ncccc1-c1ncnc2[nH]ccc12` [Example 46, 3,3-difluoro-5-((6-methyl-5-((3-(7H-pyrrolo[2,3-d]pyrimidin-4-yl)-2-pyridinyl)amino)-1-isoquinolinyl)amino)-1,3-dihydro-2H-indol-2-one], the figures for the negative-log IC50 (pIC50) on recombinant HuBraf V600E (Table I) and on V600E mutant B-raf (Table I) were 7.82 and 7.60, respectively.

Consider `Cc1ccc2c(Nc3ccc(C#N)cc3)nccc2c1Nc1ncccc1-c1ncnc2[nH]cnc12` [Example 57, 4-((6-methyl-5-((3-(9H-purin-6-yl)-2-pyridinyl)amino)-1-isoquinolinyl)amino)benzonitrile], for which the pIC50 was 9.22 at recombinant HuBraf V600E (Table I) and 8.40 at V600E mutant B-raf (Table I).

For `Cc1ccc2c(Nc3ccc4c(C)cc(=O)[nH]c4c3)nccc2c1Nc1ncccc1-c1ncnc2[nH]ccc12` [Example 52, 4-methyl-7-((6-methyl-5-((3-(7H-pyrrolo[2,3-d]pyrimidin-4-yl)-2-pyridinyl)amino)-1-isoquinolinyl)amino)-2(1H)-quinolinone], the pIC50 on recombinant HuBraf V600E (Table I) and at V600E mutant B-raf (Table I) was 8.15 in each case.

In the case of `Cc1ccc2c(Nc3ccc4c(c3)OC(F)(F)O4)nccc2c1Nc1ncccc1-c1ncnc2cc[nH]c12` [Example 64, N-1-(2,2-difluoro-1,3-benzodioxol-5-yl)-6-methyl-N-5-(3-(5H-pyrrolo[3,2-d]pyrimidin-4-yl)-2-pyridinyl)-1,5-isoquinolinediamine], the values for the pIC50 on recombinant HuBraf V600E (Table I) and at V600E mutant B-raf (Table I) were 6.52 and 6.95, respectively.

Regarding `Cc1ccc2c(Nc3cccc(C(F)(F)F)c3)nccc2c1Nc1ncccc1-c1ncnc2[nH]cnc12` [Example 58, 6-methyl-N-5-(3-(9H-purin-6-yl)-2-pyridinyl)-N-1-(3-(trifluoromethyl)phenyl)-1,5-isoquinolinediamine], the pIC50 at recombinant HuBraf V600E (Table I) and on V600E mutant B-raf (Table I) was 8.22 each time.

Consider `Cc1ccc2c(Nc3ccc(C#N)cc3)nccc2c1Nc1ncccc1-c1ncnc2[nH]ccc12` [Example 40, 4-((6-methyl-5-((3-(7H-pyrrolo[2,3-d]pyrimidin-4-yl)-2-pyridinyl)amino)-1-isoquinolinyl)amino)benzonitrile], for which the pIC50 is 8.52 at recombinant HuBraf V600E (Table I) and 7.64 at V600E mutant B-raf (Table I).

For `Cc1ccc2c(N[C@H](C)c3ccc(Cl)cc3)nccc2c1Nc1ncccc1-c1ncnc2[nH]cnc12` [Example 78, N-1-((1R)-1-(4-chlorophenyl)ethyl)-6-methyl-N-5-(3-(9H-purin-6-yl)-2-pyridinyl)-1,5-isoquinolinediamine], the pIC50 on recombinant HuBraf V600E (Table II) and on V600E mutant B-raf (Table II) was 7.48 each time.

Turning to `Cc1ccc2c(Nc3ccc(C(F)(F)F)cc3)nccc2c1Nc1ncccc1-c1ncnc2[nH]ccc12` [Example 53, 6-methyl-N-5-(3-(7H-pyrrolo[2,3-d]pyrimidin-4-yl)-2-pyridinyl)-N-1-(4-(trifluoromethyl)phenyl)-1,5-isoquinolinediamine], the negative logarithm of the IC50 (pIC50) was 7.33 at recombinant HuBraf V600E (Table I) and 7.28 at V600E mutant B-raf (Table I).

For the compound `Cc1ccc2c(Nc3ccc4snc(C)c4c3)nccc2c1Nc1ncccc1-c1ncnc2[nH]ccc12` [Example 48, 6-methyl-N-1-(3-methyl-1,2-benzisothiazol-5-yl)-N-5-(3-(7H-pyrrolo[2,3-d]pyrimidin-4-yl)-2-pyridinyl)-1,5-isoquinolinediamine], the negative-log IC50 (pIC50) is 7.96 at recombinant HuBraf V600E (Table I) and 7.82 on V600E mutant B-raf (Table I).

For `Cc1ccc2c(Nc3ccc(Cl)cc3)nccc2c1Nc1ncccc1-c1ncnc2[nH]ncc12` [Example 67, N5-(3-(1H-pyrazolo[3,4-d]pyrimidin-4-yl)pyridin-2-yl)-N1-(4-chlorophenyl)-6-methylisoquinoline-1,5-diamine], the values for the pIC50 at recombinant HuBraf V600E (Table I) and at V600E mutant B-raf (Table I) were 8.30 and 8.52, respectively.

For `Cc1ccc2c(Nc3ccc4c(c3)NC(=O)[C@@H]4C)nccc2c1Nc1ncccc1-c1ncnc2[nH]ccc12` [Example 47, (3R)-3-methyl-6-((6-methyl-5-((3-(7H-pyrrolo[2,3-d]pyrimidin-4-yl)-2-pyridinyl)amino)-1-isoquinolinyl)amino)-1,3-dihydro-2H-indol-2-one], the pIC50 on recombinant HuBraf V600E (Table I) is 8.00; at V600E mutant B-raf (Table I), 7.96.

Consider `Cc1ccc2c(Nc3ccc(Cl)cc3)ncnc2c1Nc1ncccc1-c1ncnc2[nH]cnc12` [Example 77, N-4-(4-chlorophenyl)-7-methyl-N-8-(3-(9H-purin-6-yl)-2-pyridinyl)-4,8-quinazolinediamine], for which the pIC50 was 8.30 on recombinant HuBraf V600E (Table II) and 7.92 on V600E mutant B-raf (Table II).

For `Cc1ccc2c(Nc3cccc(C(F)(F)F)c3)nccc2c1Nc1ncccc1-c1ncnc2[nH]ncc12` [Example 65, 6-methyl-N-5-(3-(1H-pyrazolo[3,4-d]pyrimidin-4-yl)-2-pyridinyl)-N-1-(3-(trifluoromethyl)phenyl)-1,5-isoquinolinediamine], the pIC50 at recombinant HuBraf V600E (Table I) and on V600E mutant B-raf (Table I) was 8.10 throughout.
